Assay results from publication PMC2074379 (British Journal of Cancer, 1996).

Test system: serine carboxypeptidase
Assay: Effect of PMSF on the in vitro metabolism of antagonist D in 2% mouse liver homogenate
Assay type: biochemical
Settings: antagonist D 100 µg in 1.0 ml 2% w/v mouse liver homogenate in PBS, 37°C; PMSF 0-2.5 mM preincubated 15 min at 23°C; HPLC; mean of two to four experiments
Excerpt: British Journal of Cancer (1996) 73, 715-720 ? 1996 Stockton Press All rights reserved 0007-0920/96 $12.00 % Metabolism of the broad-spectrum neuropeptide growth factor antagonist: ID-Arg1, D-Phe5, D-Trp7'9, Leull"-substance P DA Jones', J Cummings', SP Langdon', AJ Maclellan', T Higgins2, E Rozengurt2 and JF Smyth' 'Imperial Cancer Research Fund, Medical Oncology Unit, Western General Hospital, Edinburgh EH4 2XU; 2Imperial Cancer Research Fund, PO Box 123, Lincoln's Inn Fields, London WC2A 3PX, UK. Summary Broad-spectrum neuropeptide growth factor antagonists, such as [D-Arg', D-Phe5, D-Trp7'9, Leu']substance P (antagonist D) and [Arg6, D-Trp7'9, NmePhe8]substance p(6- 11) (antagonist G), are currently being investigated as possible anti-tumour agents. These compounds are hoped to be effective against neuropeptide-driven cancers such as small-cell lung cancer. […] The in vitro metabolism of antagonist D has been characterised and the structures of two major metabolites have been elucidated by amino acid analysis and mass spectrometry. […] HPLC The HPLC system used consisted of two 510 HPLC pumps, a 712 WISP autosampler, a TCM column heater (all Waters, Northwich, UK) and a model 1046A fluorescence detector (Hewlett Packard, Walborn, Germany). […]

O=S(=O)(F)Cc1ccccc1 [PMSF, phenylmethylsulfonylfluoride]
PMSF concentration sufficient to cause almost complete arrest of the metabolism of antagonist D: 1.0 mM
